Results as given in patent publication US20240199598A1 (MITOIMMUNE THERAPEUTICS INC., priority 2021, published 2024).
Where two headings read alike, the source gives them in different places.

Key:
[1] = Stability test of Crystalline form III of sulfate (light, dark, 60° C., 40° C./75% RH); format: physicochemical
Experimental: The chemical and physical stability of Crystalline form III were studied under conditions of light, light-shielding, 60° C. and 40° C./75% RH for 1 month. […] In the light stability test, the crystalline form was stored in a light stability test chamber without a lid and thus exposed to a total illuminance of 1.2 million lux-hr, and a sample vial completely covered with an aluminum foil was regarded as a light-shielded control (Dark control). Appearance by visual observation for 2 weeks, 1 month, 2 months and 3 months was recorded, and purity assessment and XPRD data collection for residual solid contents were performed.

[2] = Maintenance of Crystalline form III under melting-cooling, water sorption and desorption, compressive behavior and grinding tests (XRPD); format: physicochemical; conditions: melting-cooling method
Experimental: 10 mg of a sample was placed in a mesh stainless steel basket using SMS DVS Advantage 1. The entire experimental cycle consists of two scans (water sorption and desorption) at a constant temperature (25° C.) and 10% RH intervals in the range of 40 to 90% (60 to 360 minutes for each humidity level).
XRPD result, no novel crystalline form was produced.
As an XRPD result, no novel crystalline form was produced.
As a result of the XRPD test, no novel crystalline form was produced.
As a result of the XRPD test, no novel pattern was produced.

[3] = Solubility of compound of Chemical Formula 1 in various solvents; format: physicochemical
From the text: Very low solubility in various solvents adversely affects pharmaceutical development that requires the production of a finished product in a completely dissolved state.

pKa, UV-metric method = format: physicochemical
From the text: As shown in the following Table 2, each combination of counter ions and solvents were given a batch number.

[4] = Physicochemical stability test of free form and 5 salts (60° C., 40° C./75% humidity, light); conditions: for Final purity: HPLC
Experimental: In the case of a light stability test, the vial was stored in a light stability test chamber while being not closed with a lid, and exposed to a total illuminance of 1.2 million lux-hr. A vial light-shielded with aluminum foil was used as an experimental control (Dark control). For stability assessment, state assessment by visual observation, purity assessment using HPLC, and crystalline form assessment using XRPD were conducted, and results thereof are shown in Table 7. […] In FIGS. 19 to 30, “Light” represents light irradiation condition results.

[5] = Oral administration pharmacokinetic test using mice
[6] = 1.2 million lux-hr, listed as Free form of compound 1
[7] = 40° C./75% RH, 1 w, listed as Free form of compound 1
[8] = 60° C., 1 w, listed as Free form of compound 1
[9] = Dark control, listed as Free form of compound 1

For `O=S1(=O)CCN(Cc2cc(NC3CCOCC3)c3[nH]c(-c4ccccc4)cc3c2)CC1` [Crystalline form III], the Purity decrease ([1]; 40° C. for 1 month) was 0.67%, the Appearance ([1]; 40° C./75% RH, 1 M) was “White powder” and the Assay ([1]; 40° C./75% RH, 1 M) was 102.84%. The Final purity ([1]; 40° C./75% RH, 1 M) was 98.71%, the Purity change ([1]; 40° C./75% RH, 1 M) was −0.67% and the XRPD patterns ([1]; 40° C./75% RH, 1 M) was “Pattern III”. The Appearance ([1]; 40° C./75% RH, 2 w) was “White powder”, the Assay ([1]; 40° C./75% RH, 2 w) was 99.42% and the Final purity ([1]; 40° C./75% RH, 2 w) was 98.77%. The Purity change ([1]; 40° C./75% RH, 2 w) was −0.61%, the XRPD patterns ([1]; 40° C./75% RH, 2 w) was “Pattern III” and the “Stability (in words)” value ([1]; 60° C. for 1 month) was “stable”. The Appearance ([1]; 60° C., 1 M) was “White powder”, the Assay ([1]; 60° C., 1 M) was 106.79% and the Final purity ([1]; 60° C., 1 M) was 99.25%. The Purity change ([1]; 60° C., 1 M) was −0.13%, the XRPD patterns ([1]; 60° C., 1 M) was “Pattern III” and the Appearance ([1]; 60° C., 2 w) was “White powder”. It also gave an Assay ([1]; 60° C., 2 w) of 101.08%, a Final purity ([1]; 60° C., 2 w) of 99.24% and a Purity change ([1]; 60° C., 2 w) of −0.14%. The XRPD patterns ([1]; 60° C., 2 w) was “Pattern III”, the Appearance ([1]; Dark (light-shielded control)) was “White powder” and the Assay ([1]; Dark (light-shielded control)) was 103.17%. For the same molecule, the Final purity ([1]; Dark (light-shielded control)) was 99.33%, the Purity change ([1]; Dark (light-shielded control)) was −0.05% and the XRPD patterns ([1]; Dark (light-shielded control)) was “Pattern III”. For the same molecule, the Appearance ([1]; Initial) was “White powder”, the Final purity ([1]; Initial) was 99.38% and the XRPD patterns ([1]; Initial) was “Pattern III”. The Appearance ([1]; Light (1.2 million lux-hr)) was “Taupe powder”, the Assay ([1]; Light (1.2 million lux-hr)) was 101.77% and the Final purity ([1]; Light (1.2 million lux-hr)) was 99.38%. For the same molecule, the Purity change ([1]; Light (1.2 million lux-hr)) was −0.00%, the XRPD patterns ([1]; Light (1.2 million lux-hr)) was “Pattern III” and the “Stability (in words)” value ([1]; light and light-shielding conditions) was “stable”. For the same molecule, the “Stability of the crystalline form (in words)” value [2] was “stable under each test condition”.
For `O=S1(=O)CCN(Cc2cc(NC3CCOCC3)c3[nH]c(-c4ccccc4)cc3c2)CC1` [compound of Chemical Formula 1, 5-[(1,1-dioxido-4-thiomorpholinyl)methyl]-2-phenyl-N-(tetrahydro-2H-pyran-4-yl)-1H-indol-7-amine], the solubility ([3]; Heptane, 25° C.) was “<LOQ”, the solubility ([3]; Heptane, 50° C.) was “<LOQ” and the solubility ([3]; Water, 25° C., read-out: Solubility) was 1 µg/mL. It also gave a solubility ([3]; Water, 50° C., read-out: Solubility) of 46 µg/mL, a solubility ([3]; aqueous with cosolvent or surfactant or cyclodextrin, Acetic acid-water (1:1), 25° C., read-out: Solubility) of 52800 µg/mL and a solubility ([3]; aqueous with cosolvent or surfactant or cyclodextrin, Acetic acid-water (1:1), 50° C., read-out: Solubility) of 75600 µg/mL. For the same molecule, the solubility ([3]; aqueous with cosolvent or surfactant or cyclodextrin, Acetone-water (1:2), 25° C., read-out: Solubility) was 80 µg/mL, the solubility ([3]; aqueous with cosolvent or surfactant or cyclodextrin, Acetone-water (1:2), 50° C., read-out: Solubility) was 160 µg/mL and the solubility ([3]; aqueous with cosolvent or surfactant or cyclodextrin, MeOH/water = 1:1 (v/v), 25° C., read-out: Solubility) was 30 µg/mL. For the same molecule, the solubility ([3]; aqueous with cosolvent or surfactant or cyclodextrin, MeOH/water = 1:1 (v/v), 50° C., read-out: Solubility) was 80 µg/mL, the solubility ([3]; organic solvent or mixture, 1-Butanol, 25° C., read-out: Solubility) was 650 µg/mL and the solubility ([3]; organic solvent or mixture, 1-Butanol, 50° C., read-out: Solubility) was 1000 µg/mL. It also gave a solubility ([3]; organic solvent or mixture, 2-Methyltetrahydrofuran (2-MeTHF), 25° C., read-out: Solubility) of 2780 µg/mL, a solubility ([3]; organic solvent or mixture, 2-Methyltetrahydrofuran (2-MeTHF), 50° C., read-out: Solubility) of 3410 µg/mL and a solubility ([3]; organic solvent or mixture, Acetone, 25° C., read-out: Solubility) of 5290 µg/mL. For the same molecule, the solubility ([3]; organic solvent or mixture, Acetone, 50° C., read-out: Solubility) was 17500 µg/mL, the solubility ([3]; organic solvent or mixture, Acetonitrile (ACN), 25° C., read-out: Solubility) was 3090 µg/mL and the solubility ([3]; organic solvent or mixture, Acetonitrile (ACN), 50° C., read-out: Solubility) was 4040 µg/mL. For the same molecule, the solubility ([3]; organic solvent or mixture, Chloroform (CHCl3), 25° C., read-out: Solubility) was 4700 µg/mL, the solubility ([3]; organic solvent or mixture, Chloroform (CHCl3), 50° C., read-out: Solubility) was 4620 µg/mL and the solubility ([3]; organic solvent or mixture, Dimethyl sulfoxide (DMSO), 25° C., read-out: Solubility) was 43400 µg/mL. The solubility ([3]; organic solvent or mixture, Dimethyl sulfoxide (DMSO), 50° C., read-out: Solubility) was 238000 µg/mL, the solubility ([3]; organic solvent or mixture, Ethanol (EtOH), 25° C., read-out: Solubility) was 1410 µg/mL and the solubility ([3]; organic solvent or mixture, Ethanol (EtOH), 50° C., read-out: Solubility) was 1080 µg/mL. The solubility ([3]; organic solvent or mixture, Ethyl acetate (EtOAc), 25° C., read-out: Solubility) was 1360 µg/mL, the solubility ([3]; organic solvent or mixture, Ethyl acetate (EtOAc), 50° C., read-out: Solubility) was 1860 µg/mL and the solubility ([3]; organic solvent or mixture, Isopropanol (IPA), 25° C., read-out: Solubility) was 320 µg/mL. It also gave a solubility ([3]; organic solvent or mixture, Isopropanol (IPA), 50° C., read-out: Solubility) of 540 µg/mL, a solubility ([3]; organic solvent or mixture, Isopropyl acetate (iPrOAc), 25° C., read-out: Solubility) of 710 µg/mL and a solubility ([3]; organic solvent or mixture, Isopropyl acetate (iPrOAc), 50° C., read-out: Solubility) of 910 µg/mL. For the same molecule, the solubility ([3]; organic solvent or mixture, Methanol (MeOH), 25° C., read-out: Solubility) was 590 µg/mL, the solubility ([3]; organic solvent or mixture, Methanol (MeOH), 50° C., read-out: Solubility) was 1150 µg/mL and the solubility ([3]; organic solvent or mixture, Methyl ethyl ketone (MEK), 25° C., read-out: Solubility) was 6080 µg/mL. The solubility ([3]; organic solvent or mixture, Methyl ethyl ketone (MEK), 50° C., read-out: Solubility) was 8120 µg/mL, the solubility ([3]; organic solvent or mixture, Methyl isobutyl ketone (MIBK), 25° C., read-out: Solubility) was 2100 µg/mL and the solubility ([3]; organic solvent or mixture, Methyl isobutyl ketone (MIBK), 50° C., read-out: Solubility) was 2820 µg/mL. For the same molecule, the solubility ([3]; organic solvent or mixture, Methyl tert-butyl ether (MTBE), 25° C., read-out: Solubility) was 60 µg/mL, the solubility ([3]; organic solvent or mixture, Methyl tert-butyl ether (MTBE), 50° C., read-out: Solubility) was 70 µg/mL and the solubility ([3]; organic solvent or mixture, N,N-dimethylformamide (DMF), 50° C., read-out: Solubility) was 333000 µg/mL. It also gave a solubility ([3]; organic solvent or mixture, N-methyl pyrrolidone (NMP), 25° C., read-out: Solubility) of 160000 µg/mL, a solubility ([3]; organic solvent or mixture, N-methyl pyrrolidone (NMP), 50° C., read-out: Solubility) of 192000 µg/mL and a solubility ([3]; organic solvent or mixture, Tetrahydrofuran (THF), 25° C., read-out: Solubility) of 17400 µg/mL. For the same molecule, the solubility ([3]; organic solvent or mixture, Tetrahydrofuran (THF), 50° C., read-out: Solubility) was 16300 µg/mL, the solubility ([3]; organic solvent or mixture, Toluene, 25° C., read-out: Solubility) was 20 µg/mL and the solubility ([3]; organic solvent or mixture, Toluene, 50° C., read-out: Solubility) was 20 µg/mL. For the same molecule, the pKa (pKa, UV-metric method) was 4.5, the Appearance ([4]; 1.2 million lux-hr (light stability), listed as Free form of compound 1) was “White powder” and the Final purity [4, 6] was 99.89%. For the same molecule, the Assay [4, 6] was 107.41%, the Purity change [4, 6] was “+0.13%” and the XRPD patterns [4, 6] was “Pattern A”. The Final purity [4, 7] was 99.95%, the Assay [4, 7] was 110.59% and the Purity change [4, 7] was “+0.19%”. For the same molecule, the XRPD patterns [4, 7] was “Pattern A”, the “Chemical stability (purity change %/1 w), 40° C./75% RH” value ([4]; 40° C./75% RH, 1 w, summary Table 9, listed as Free form of compound of Chemical Formula 1) was 0.19% and the Final purity [4, 8] was 99.94%. The Assay [4, 8] was 105.89%, the Purity change [4, 8] was “+0.18%” and the XRPD patterns [4, 8] was “Pattern A”. For the same molecule, the “Chemical stability (purity change %/1 w), 60° C.” value ([4]; 60° C., 1 w, summary Table 9, listed as Free form of compound of Chemical Formula 1) was 0.18%, the Appearance ([4]; Dark control (light-shielded vial)) was “White powder” and the Final purity [4, 9] was 99.94%. The Assay [4, 9] was 109.40%, the Purity change [4, 9] was “+0.18%” and the XRPD patterns [4, 9] was “Pattern A”. The “Chemical stability (purity change %/1 w), Light stability” value ([4]; light stability, summary Table 9, listed as Free form of compound of Chemical Formula 1) was 0.13%, the Cmax ([5]; mice, oral, 10 mg/kg, listed as Free) was 1015.2 ng/mL and the t½ ([5]; mice, oral, 10 mg/kg, listed as free form) was 1.2 h. The AUClast ([5]; mice, oral, 10 mg/kg, listed as free form of the compound of Chemical Formula 1, 10 mg/kg) was 3603.9 ng·h/mL, the “Pharmacokinetic test, t½” value ([5]; mice, oral, summary Table 9, listed as Free form of compound of Chemical Formula 1) was 1 h and the Tmax ([5]; mouse, in vivo, po, 10 mg/kg) was 30 min.
